# Measurements: a melting point compilation (Tetko et al.; mined from patent text by program, amines drawn as free bases though some values may be those of a salt)
row,SMILES,melting point [°C]
1,CCN(CC)CCOC(=O)C(C)(c1ccc(O)cc1)c1ccc(O)cc1,140 to 141
2,COC(=O)/C=C/C(=O)/C=C/c1ccc(OC)cc1,54 to 55
3,C=C(c1ccccc1)c1ccc(N)c(N)c1,109 to 110
4,Cn1c(CC(=O)O)cc2ccc3ccsc3c(=O)c21,185 to 188
5,OC[C@@H](O)CCc1ccccc1,34 to 36
6,COc1cc2sc(-c3ccccn3)nc(=O)c2cc1OC,236 to 238
7,CCOC(=O)C1(CCCN(C)C)CCCCC1(O)c1ccccc1 (stereo not drawn),97 to 99
8,c1n[nH]c2c1Cc1[nH]ncc1-2,180
9,CC(C)(C)OC(=O)NCC1(O)CCN(Cc2ccccc2)CC1,109 to 112
10,C=CCSC(=S)N1Cc2[nH]c3ccccc3c2CC1C(=O)O (stereo not drawn),161 to 162
11,CCN(CC)CCOCCc1ccc2c(c1)OCO2,83 to 84
12,Nc1ccccc1CCc1ccccn1,59 to 61
13,CCOCc1nc2c(N)nc3ccccc3c2n1CCOCc1ccccc1,144 to 146
14,CCCCCCCCCC(CC)C(=O)Nc1cc(C(=O)O)ccc1C (racemic),217 to 220
15,Oc1cc(Br)cnc1F,146
16,CCCCCCCC(=O)N1CCc2nnc(NN)cc2C1,164 to 166
17,CC12CCC3C4CCC(OCc5ccccc5)CC4CCC3C1C=CC2=O (stereo not drawn),119 to 120
18,Cc1cccc(NC(=O)NCC(=O)N(CC(=O)N(C)c2ccccc2)c2ccccc2C)c1,193
19,CC(=O)OC(C)c1ccc(CCOc2ccc(CC3SC(=O)NC3=O)cc2)nc1 (stereo not drawn),143 to 144

row,SMILES,melting point [°C]
1,C=CCCN(c1ccc(OC)cc1)S(=O)(=O)c1c(F)c(F)c(F)c(F)c1F,64 to 66
2,COc1ccc(-c2nc(-c3ccccc3)nc(-c3ccccc3)n2)c(O)c1,211 to 212
3,OC1CSC(Oc2cccc(-c3ccccn3)c2)C(O)C1O (stereo not drawn),138 to 139
4,CCCCC(=O)Nc1ccc2c(c1)C(=O)OC2CCCC (stereo not drawn),137 to 139
5,COc1c(F)cc(CCCn2nnnc2S)cc1F,64 to 65
6,CC(C=[N+]([O-])C(C)(C)C)c1ccccc1 (stereo not drawn),56
7,O=C(Oc1cc(OC(=O)c2ccc(O)c(O)c2)c2ccccc2c1)c1ccc(O)c(O)c1,79 to 81
8,COc1ccc2sc(=NN3C(=O)CSC3=S)sc2c1,254 to 255
9,Cc1cc(Br)c(S(C)(=O)=O)cc1C(=O)N=C(N)N,207 to 208
10,Cc1oc(-c2ccccc2)nc1COc1ccc(COc2cncc(CC(=O)O)c2)cc1,139 to 140
11,CCN(CC)CCOC1=C(c2ccccc2)CN(Cc2ccc(Cl)cc2)C1=O,143 to 145
12,Fc1cc(I)c2nc[nH]c2c1,210 to 211
13,CCOC(=O)c1c(C)[nH]c(CC)c1CC,104 to 106
14,O=C(Cl)c1cc(C#Cc2ccccc2)c(C(=O)Cl)cc1C#Cc1ccccc1,174 to 180
15,O=C1C=CC(O)(c2cc3ccccc3n2S(=O)(=O)c2ccc(F)cc2)C=C1,165 to 166
16,O=C(O)/C=C/n1cnc2ccc(Cl)cc2c1=O,297 to 298
17,COc1ccc(NN=C(Sc2cccc(Cl)c2)C(C)=O)cc1,132 to 134
18,CCOC(=O)Nc1ncc(-c2nc3ccccc3c(=O)n2-c2ccccc2OC)s1,263 to 264
19,CC(C(=O)O)c1ccc2c(c1)Cc1ccccc1-2 (stereo not drawn),180 to 182

row,SMILES,melting point [°C]
1,Nc1ccc(Cl)cc1C(O)(C#CC1CC1)C(F)(F)F (stereo not drawn),141 to 143
2,CNS(=O)(=O)c1ccc(Oc2ccncc2)cc1,125 to 127
3,Cc1cc(Oc2cc(Cl)ccc2[N+](=O)[O-])n[nH]1,87 to 90
4,NC(=O)CCCC(=O)NCCS,127
5,N=C(N)c1ccccc1-c1ccccc1,148 to 150
6,N#Cc1cc(S(=O)(=O)c2ccc(Cl)cc2)[nH]c1-c1ccc(Cl)cc1,159 to 160
7,CCOP(=O)(OCC)C(CCc1cc(C)nc2c(C#N)c(-c3ccccc3)nn12)P(=O)(OCC)OCC,107
8,CC(C)C[C@H](NC(=O)[C@@H]1CCC(=O)N1C(=O)OCc1ccccc1)C(=O)OC(C)(C)C,130 to 131
9,CCOC(=O)C1=C(C)NC(N)=C(C(=O)OC(C)C)C1c1ccccc1C#N (stereo not drawn),200
10,CC(C)(C)OC(=O)N=C(NCCCCNC(=O)[C@H](Cc1ccccc1)NC(=O)CCCC(=O)O)NC(=O)OC(C)(C)C,86
11,O=C(O)CCS(=O)(=O)NCCOCCc1ccccc1,80 to 82
12,Cc1[nH]n(C2CCC2)c2nc(-c3ccncc3)nc(=O)c1-2,289 to 290
13,COC(=O)c1ccccc1NC1C=CC(=O)O1 (stereo not drawn),172 to 173
14,CN(Cc1cccc(O)c1)c1cnc(-c2ccccc2)c(-c2ccccc2)n1,156 to 157
15,CC(C)NC1=NS(=O)(=O)c2sc(Cl)cc2N1,281 to 283
16,COc1ccc(CN(CCCNc2ncc(Cc3ccc(C)nc3)c(=O)[nH]2)c2ccccn2)cc1,90 to 98
17,COc1ccc2[nH]c(C(C)=NO)cc2c1,148 to 150
18,CCc1c(C(=O)OC(C)C)ncc2[nH]c3ccc4sc(NC(C)=O)nc4c3c12,208 to 210
19,O=C(O)CC[C@H](NCC(O)C(O)C(O)C(O)CO)C(=O)O (stereo partly drawn),94

# Second part, the compound after the results:
row,melting point [°C],SMILES
1,172 to 173,CSc1ccc(-n2cnc(-c3ccc(F)cc3)c2-c2ccncc2)cc1
2,280 to 282,Cn1ccc(-c2sc(NC(=O)c3ccncc3)nc2-c2ccco2)cc1=O
3,132 to 133,CCOC(=O)N1CCC2(CC1)Oc1ccccc1C2n1cccc1 (stereo not drawn)
4,> 300,O=C(O)/C=C/c1ccc(-c2nc3c(=O)n(CC4CCCC4)c(=O)n(CC4CCCC4)c3[nH]2)cc1
5,85 to 86,CCOC(=O)N1CCN(c2c(F)cc([N+](=O)[O-])c(F)c2COC)CC1
6,214 to 215,COC(=O)C1=C(C)NC(C)=C(C(=O)OC)C1c1cccc(N)c1
7,218 to 220,CC1(C)CCC(C)(C)c2cc(S(=O)(=O)c3ccc(C(=O)O)cc3)ccc21
8,83 to 84,COC(=O)c1cc2c(C)ccc(C)c2n1C(=O)Oc1ccccc1
9,117 to 119,CCc1ccc(-c2cccc(-c3ccnc4c(C(=O)c5cccs5)cnn34)c2)cc1
10,121 to 127,CC(C)(C)OC(=O)c1cnc(NC(=O)[C@H](CC2CCCC2)c2ccc(S(C)(=O)=O)c(Cl)c2)cn1
11,169 to 170,Cc1cc2c(cc1Oc1ccc(C(=O)NNc3ccc4c(C)nn(C)c4n3)o1)C(C)(C)CC(C)C2(C)C (stereo not drawn)
12,180 to 183,O=C(O)c1cccc(CN2C(=O)N(c3ccccc3Br)Cc3cnc(Nc4ccccc4)nc32)c1
13,100 to 101,CC1(C)CC(=C(c2ccc(F)cc2)c2ccc(OCC#N)cc2)CC(C)(C)C1
14,134 to 135,N#CN1CCNC(c2ccccc2)c2ccccc2C1 (stereo not drawn)
15,180 to 181,CSc1nccc(Oc2ccc(NC(=O)c3cc(F)cc(N4CCCC4)c3)c3ccccc23)n1
16,47 to 48,N#CC1CCN(CCc2ccc(F)cc2)CC1
17,206 to 208,CC1(C)OC(=O)C(C(=O)Nc2ccc(C(F)(F)F)cc2)=C(O)O1
18,99 to 102,COc1ccc(-c2cc(C(C)(C)CC(C)(C)C)cc(-n3nc4ccc(C(F)(F)F)cc4n3)c2O)cc1
19,144 to 146,Cc1cc(N)cc(C)c1-c1ccc(-c2c(C)cc(N)cc2C)o1
20,130 to 133,CC(C)COC(=O)N1CCN(c2nc3cccccc-3n2)CC1
21,160 to 162,N#CC=C1CCN(c2ccc(N3C[C@H](CNC(=O)CBr)OC3=O)cc2F)CC1

row,melting point [°C],SMILES
1,198 to 200,Cc1cc(-c2ccc(C(F)(F)F)cc2)nc2c(C(=O)Nc3cccc(S(C)(=O)=O)c3)cnn12
2,251 to 252,CS(=O)(=O)c1ccc(Oc2cc(OCc3ccccc3)c3[nH]c(C(N)=O)cc3c2)cc1
3,105 to 108,N#CCc1ccccc1-c1ccc(C(=O)N2Cc3ccc(C(=O)NCc4cccnc4)n3Cc3ccccc32)cc1
4,70 to 71,"CC(C)C1Cc2ccccc2P1c1ccccc1P1c2ccccc2CC1C(C)C (single isomer, unassigned; (+))"
5,161,Cc1ccc(N(c2ccc(C)cc2)c2ccc(C=Cc3cc(O)cc(O)c3)cc2)cc1
6,73 to 76,CCOC(=O)c1cn(-c2nccs2)c2nc(N3C[C@@H](NC)[C@H](OC)C3)ccc2c1=O (relative stereo)
7,119 to 120,COC(=O)c1c(C)nc2c(C)cc(C)cc2c1-c1ccccc1Cl
8,< 50,CCCOCOCCc1ccc(OCCCOC(=O)C2=C(C)NC(C)=C(C(=O)OC)[C@@H]2c2cccc([N+](=O)[O-])c2)cc1
9,155 to 157,CC(C)n1nc(-c2sc(C(=O)NCc3ccncc3)nc2-c2ccc(F)cc2)ccc1=O
10,272,Cc1cc(-c2cc(C(F)(F)F)n3ncc(C(=O)Nc4cccc(S(=O)(=O)N5CCOCC5)c4)c3n2)ccc1C(F)(F)F
11,147 to 149,Cc1ccc(C2c3c(C)c(N4CCN(c5cc(C)cc(C)c5)CC4)c(C)c(C)c3OC2(C)C)cc1 (stereo not drawn)
12,317 to 320,CS(=O)(=O)c1ccc(-c2nc(C(F)(F)F)nc(N=[N+]=[N-])c2-c2ccc(Cl)cc2)cc1
13,163 to 166,COc1ccc(C=Cc2ccc(O)c(OC)c2)cc1
14,241 to 244,CC(c1oc2ccccc2c(=O)c1-c1cccc(F)c1)n1nc(-c2ccc(F)c(O)c2)c2c(N)ncnc21 (stereo not drawn)
15,196 to 198,COc1cc(OC)c2c(=O)[nH]c(-c3cc(C)c(OCCN4CCOCC4)c(C)c3)cc2c1
16,133 to 134,"NS(=O)(=O)N1CCC(C2c3ncc(Br)cc3CCc3cc(Cl)cc(Cl)c32)CC1 (single isomer, unassigned; (+))"
17,92 to 94,CC(C)(OCc1cc2cc(C(F)(F)F)ccc2n1S(=O)(=O)c1ccc2c(c1)CCO2)C(=O)O
18,133 to 135,CCn1c(=O)n(OCc2ccccc2)c(=O)c2cc(F)c(F)cc21
19,217 to 218,CCOC(=O)c1ccc(CCN2CC=C(c3c[nH]c(-c4ccc(F)cc4)c3-c3ccncc3)CC2)cc1
20,149 to 151,Cn1ncnc1COc1nc2c(cnn2-c2ccccc2)c2ccccc12
